Data on three compounds can be found in patent publication US4772594A, “Prodrug compounds, process for the preparation thereof and sustained release preparation comprising the same” (Fujisawa Pharmaceutical Co., Ltd., priority 1986, dated 1988).

Series [1] can be described thus: Conversion Test 1: conversion half life of prodrug to parent compound in rat serum. It counts as in vitro ADME. As to conditions: rat serum, 37° C. On the procedure: (§1) Chloroform solution containing egg yolk lecithin (84 μmole), egg yolk sphingomyelin (36 μmole) and Mitomycin C prodrug ( 6 μmole) obtained in the below-mentioned Example 1 or 2 was poured into a round-bottom flask and evaporated to dryness.
(§2) To this were added sodium cholate (258 mg) and pH 7.4 phosphate buffered saline (hereinafter referred to as PBS) (4.8 ml) and the mixture was agitated to give a clear purple solution.
(§3) Sodium cholate was removed from the solution by the Lipoprep dialyzer (detergent removal apparatus prepared by Diachema Co., Ltd.) to give a liposome suspension containing Mitomycin C prodrug.
Chloroform solution containing egg yolk lecithin (70 μmole), egg yolk sphingomyelin (30 μmole) and FR900482 substance prodrug (Example 6)(5 μmole) was poured into a round-bottom flask and a liposome suspension containing FR900482 substance prodrug was obtained in a similar manner to that of above-mentioned method.
Above-mentioned two liposome suspensions containing Mitomycin C prodrug were each diluted with PBS at 2.5 times.
The liposome suspension containing FR900482 substance prodrug was diluted with PBS to obtain the drug concentration of 0.5 μmole/ml and was filtered through millex-GV (trademark: prepared by Millipore Co., Ltd.) filter (0.22μ).
(§4) After the liposome suspension and ethanol solution of each prodrug (0.5 ml) were added to mouse, rat or human serum (4.5 ml, 37° C.), samples were taken periodically and the concentration of each prodrug was determined by high-performance liquid chromotography.
(§5) Conversion half lives (t 1/2) of each prodrug to each parent compound in various kinds of serum were calculated by the concentration of each prodrug remaining at each time.

Series [2] in a line: Conversion Test 1: conversion half life of prodrug to parent compound in mouse serum. It counts as in vitro ADME. As to conditions: 37° C. On the procedure:
as §1, §2, §3
(§6) Chloroform solution containing egg yolk lecithin (70 μmole), egg yolk sphingomyelin (30 μmole) and FR900482 substance prodrug (Example 6)(5 μmole) was poured into a round-bottom flask and a liposome suspension containing FR900482 substance prodrug was obtained in a similar manner to that of above-mentioned method. […]
as §4, §5

A short description of series [3]: Conversion Test 1: conversion half life of prodrug to parent compound in human serum. It counts as in vitro ADME. As to conditions: 37° C. On the procedure:
as §1, §2, §3, §6, §4, §5

Series [4] concerns human lung adenocarcinoma A 549. The series is described as follows: Anti tumor test 2: growth inhibition of A 549 under the subrenal capsule of mice. It counts as in vivo. As to conditions: Day 14; for Inhibition: tumor growth. The source says: The mixture of chloroform and methanol (3:1 V/V) containing egg yolk lecithin (245 μmole), egg yolk sphingomyelin (105 μmole) and Cyarabine prodrug (Example 8) (87.5 and 157.5 μmole respectively) was taken in a round-bottom flask. Liposome suspensions containing Cytarabine prodrug (Concentration: 10 and 18 μmole/ml respectively) were obtained in a similar manner to that of the above-mentioned method.
A fragment of human lung adenocarcinoma A 549 was implanted under the subrenal capsule of BDF female mouse (8 weeks). Cytarabine aqueous solution (dose: 1000 μmole/kg) and above-mentioned liposome suspension containing Cytarabine prodrug (dose: 100 and 180 μmole/kg respectively)were administered intravenously to the mice at a volume of 0.2 ml per mouse body weight 20 g at Day 1, 5 and 9 after implantation. The tumor volume at Day 14 after implantation was measured and the growth inhibition percent was calculated. (In this test, to clarify the anti tumor effect of each preparation, 17-allyl-1,14-dihydroxy-12-[2-(4-hydroxy-3- methoxycyclohexyl)-1-methylvinyl]-23,25-dimethoxy-13,19,21,27-tetramethyl- 11,28-dioxa-4-azatricyclo[22.3.1.0^4,9 ]octacos-18-ene-2,3,10,16-tetraone as immunosuppressive substance(dose: 32 mg/kg) was administered subcutaneously at Day 1, 2, 5, 7, 9 and 12 after implanation.)

For series [5], the system named is Mouse leukemia cell L 1210. The series is described as follows: Anti tumor test 1: survival of mice implanted with L 1210 leukemia. It counts as in vivo. As to conditions: i.v. aqueous solution, 100 μmole/kg.
Series [6] concerns Mouse leukemia cell L 1210. The description is as above. It counts as in vivo. As to conditions: for T/C: mean survival time vs control. From the text: The mixture of chloroform and methanol (8:2 V/V) containing egg yolk lecithin (245 μmole), egg yolk sphingomyelin (105 μmole) and Cytarabine prodrug (Example 8) (87.5 and 262.5 μmole respectively) was taken in a roundbottom flask. Liposome suspensions containing Cytarabine prodrug (Concentration: 10 and 20 μmole/ml respectively) were obtained in a similar manner to that of the above-mentioned method. Mouse leukemia cell L 1210 (10^5 cells) were implanted intraperitoneally into BDF female mice (7 weeks).
After 24 hours after inoculation, Cytarabine aqueous solution (dose: 1000 and 3000 μmole/kg respectively), above-mentioned liposome suspension containing Cytarabine prodrug (dose: 100 and 300 μmole/kg respectively)and aqueous solution of N^4 -behenoyl-1-β-arabinofuranosylcytosine (hereinafter referred to as BHAC) which is a known compound as Cytarabine prodrug and is shown by the following structure (dose: 100 and 300 μmole/kg respectively) were administered intravenously to the mouse at a volume of 0.2 ml or 0.3 ml (in case the administration at the dose of 300 μmole/kg of Cytarabine prodrug) per 20 g of mouse body weight. After the treatment, survival of the mice was recorded. [drawing 9]

Series [7] can be described thus: in vitro. It counts as in vitro ADME. As to conditions: rat, serum. On the procedure:
The mixture of chloroform and methanol (8:2 v/v) mixture containing egg yolk lecithin (70 μmole), egg yolk sphingomyelin (30 μmole) and Cytarabine prodrug (30 μmole) obtained in the below-mentioned Example 8 was poured into a round-bottom flask and evaporated to dryness. To this were added sodium cholate (53.8 mg) and PBS (5.0 ml) and the mixture was agitated to give a clear colorless solution.
Sodium cholate was removed from the solution by the Lipoprep dialyzer to give liposome suspension containing Cytarabine prodrug.
The liposome suspension was diluted with PBS to obtain the drug concentration of 5 μmole/ml and was filtered successively through polycarbonate membranes(prepared by Nuclepore Co., Ltd.) (0.2, 0.1 and 0.08μ respectively) and then filtered through a millex-GV filter (0.22 μ).
After the above-mentioned liposome suspension and ethanol solution of Cytarabine prodrug (0.08 ml) were added to rat serum (4.0 ml, 37° C.), samples were taken periodically and the concentration of Cytarabine prodrug was determined by high-performance liquid chromatography.
Conversion half lives (t 1/2) of the prodrug to the parent compound were calculated by the concentration of prodrug remaining at each time.

[8] abbreviates: i.v. aqueous solution, 1000 μmole/kg at Day 1, 5, 9.
Setting [9] is: i.v. aqueous solution, 1000 μmole/kg.
Setting [10] is: i.v. liposome preparation, 100 μmole/kg at Day 1, 5, 9.
Setting [11] is: i.v. liposome preparation, 180 μmole/kg at Day 1, 5, 9.
[12] abbreviates: i.v. liposome suspension, 100 μmole/kg.
Where [13] appears, read: i.v. liposome suspension, 300 μmole/kg.

In the case of “11-[N-(cholest-5-en-3β-oxycarbonyl)glycyl]-4-formyl-6,9-dihydroxy-14- oxa-1,11-diazatetracyclo[7.4.1.0^2,7.0^10,12 ]tetradeca-2,4,6-triene-8-ylmethylcarbamate [Example 6]”, the “Half life (t 1/2)” value in series [1] (ethanol solution) was 4.0 h; in series [1] (liposome suspension) it was 10.3 h; in series [2] (ethanol solution), 2.7 h; in series [2] (liposome suspension), 4.6 h; in series [3] (ethanol solution) it was 3.3 h; in series [3] (liposome suspension), 9.9 h.

By Inhibition is commonly meant how much of the control response was suppressed. Low readings indicate little suppression, high ones strong suppression. As a reminder, the T/C is the result in the treated group divided by that in the control group, in per cent. In the case of `Nc1ccn([C@@H]2O[C@H](CO)[C@@H](O)[C@@H]2O)c(=O)n1` [Cytarabine, 1-β-D-arabinofuranosylcytosine], in series [4] (setting [8]), the “Tumor volume mean value ± standard error” value turned out to be 17.7 ± 3.2 mm^3 and the Inhibition stood at 41.7%. For the same compound, the Mean survival time in series [5] was 9.5 ± 0.2 days. This compound gave a T/C in series [5] (mean survival time vs control) of 106%. In series [6] (setting [9]), this compound displayed a Mean survival time of 10.8 ± 0.3 days and a T/C of 120%.

The half-life is how long it takes for the measured level to halve. A lower half-life goes with fast loss. Take `CC(C)CCC[C@@H](C)[C@H]1CC[C@H]2[C@@H]3CC=C4C[C@@H](OC(=O)NCC(=O)Nc5ccn([C@@H]6O[C@H](CO)[C@@H](O)[C@@H]6O)c(=O)n5)CC[C@]4(C)[C@H]3CC[C@]12C` [Example 8, N^4-[N-(cholest-5-en-3β-oxycarbonyl)glycyl]-1-β-D-arabinofuranosylcytosine]: the “Tumor volume mean value ± standard error” value in series [4] (setting [10]) is recorded as 13.0 ± 3.0 mm^3; in series [4] (setting [11]), 5.5 ± 1.6 mm^3. Further, the figures for the Inhibition in series [4] (setting [10]) and in series [4] (setting [11]) were 54.1% and 80.4%, respectively. The “Half life (t 1/2)” value in series [7] turned out to be 37.3 h. This compound also gave a half-life in series [7] (Half life (t 1/2)) of 22.6 h. Besides, the Mean survival time is 16.3 ± 0.3 days in series [6] (setting [12]) and 33.3 ± 13.4 days in series [6] (setting [13]). The T/C is 181% in series [6] (setting [12]) and 370% in series [6] (setting [13]).
